From US20260191889A1, “TREHALOSE FOR TREATING HUNTINGTON'S DISEASE” (GLD Debt Acquisition 2025-1, priority 2022, published 2026)

What was measured:
[1] = tested on: transgenic R6/2 mice (a disease model for Huntington's Disease); experiment: Lifespan of R6/2 mice after treatment with MT; type: in vivo, Mus musculus; settings: MT 5 g/kg i.p. 5 times per week from 4 weeks of age, vehicle 101, wild-type 181
Procedure: The objective of this study was to assess the effects of molecular trehalose (MT) in the R6/2 mouse model of Huntington's disease through intraperitoneal (IP) injections. Treated mice […] were administered (i.e. dosed) with a MT intraperitoneal (i.p.) injection. Mice were weighed twice per week until 8 weeks post infusion i.e., 12 weeks of age or followed until survival. At a minimum of 8 weeks post infusion or MT dosing, mice were sacrificed 30 minutes after last MT, and the following tissues were collected: blood, brain, and tail. Immunohistochemistry analysis for GFAP, Iba1, EM-47 and Darpp-32 were performed on brain hemisphere 1 samples and the amount of MT in blood and brain hemisphere 2 samples was determined.
Male R6/2 (B6CBA-Tg(HDexon1)62Gpb/3J) (The Jackson Laboratory, USA, JAX stock: 006494) mice (Mus musculus) between the ages of 28-33 days were used in this study. […]
Eleven male mice were treated with trehalose 5 g/kg (i.p. injection, 25 ml/kg, trehalose dose formulation concentration: 0.2 g/ml, with active trehalose corresponding to 5.252 g/kg of trehalose dihydrate), 5 times per week starting at 4 weeks of age. […] Mice were euthanized at 8 weeks after first trehalose dose (12 weeks of age, n=8). n=3 mice/group were monitored until survival. […]

[2] = tested on: transgenic R6/2 mice (a disease model for Huntington's Disease); experiment: Body weight of R6/2 mice after treatment with MT; type: in vivo, Mus musculus; settings: MT 5 g/kg i.p. 5 times per week, average±standard error (±0.6), vehicle 16.5, wild-type 30.7
Procedure: Eleven male mice were treated with trehalose 5 g/kg (i.p. injection, 25 ml/kg, trehalose dose formulation concentration: 0.2 g/ml, with active trehalose corresponding to 5.252 g/kg of trehalose dihydrate), 5 times per week starting at 4 weeks of age. There were a total of 41 doses or doses stopped when mice were euthanized. Mice were euthanized at 8 weeks after first trehalose dose (12 weeks of age, n=8). n=3 mice/group were monitored until survival.
Body Weights—Body weights were monitored twice per week throughout the study for all animals. Pre-trehalose treatment onset baseline body weight was used to assign the animals to experimental groups. Terminal body weights were not registered from animals found dead or euthanized moribund.
MT was administered to mice i.p. 5 times per week (from Monday to Friday). Dose volume was 25 ml/kg. Dose was 5 g/kg. Pure trehalose dose formulation concentration was 0.2 g/ml. The last dose of animals euthanized at 8 weeks post infusion (age week 12) was 30 min prior to terminal sampling.
Body Weight—Comparisons between two groups used a two-way Mixed-effects model (Mixed Anova) with Geisser-Greenhouse correction (not assuming sphericity), followed by Fisher's LSD test between the two groups performed for each time point. Time, group and the interaction of Time×Group were fixed effects, and the individual subject was the random effect. […]

DARPP-32 = DARPP-32 immunohistochemistry in brain of R6/2 mice; type: in vivo, Mus musculus; settings: MT-treated vs untreated transgenic R6/2 mice, FIG. 1
Procedure: (§1) Cryosectioning—Cryosectioning was performed to striatal (left hemisphere) (Bregma +1.30 mm to −0.8 mm from Bregma, containing the infusion site at +0.5 mm) region and sections were collected as 20 μm thick sections on slides. A series of sections consisted of 8 sections with an interval of 300 μm in-between each section. A total of 5 series were collected from the target region using subsequent slides. For phase I, Series 1 & 3 were used for IHC analysis of EM48, series 2 was used for Darpp-32, series 4 was used for Iba1+GFAP and Series 5 was used for piloting and negative controls. For phase II, A total of 6 series were collected from the target region using subsequent slides. Series 1 was used for IHC analysis of EM48, series 2 was used for Darpp-32, series 4 was used for Iba1+GFAP. Series 5 was collected as spare samples and series 6 was used for piloting and negative controls. […]
(§2) Antigen expression analyses—The stained sections were scanned with the Olympus VS120 slide scanner using the proper fluorescent or brightfield channels. The regions of interest (ROIs) (striatum/cortex) were analyzed for positive immunostaining of the respective targets (EM48, DARPP-32, GFAP and Iba1) applying the VIS—Visiopharm Integrator System (Visiopharm, Denmark).
(§3) Positive staining of the respective antigens was detected by applying a suitable threshold which recognizes only truly positive staining. […]

[3] = tested on: EM48 (huntingtin protein; mHTT aggregates); experiment: EM48 immunohistochemistry in brain of R6/2 mice; type: in vivo, Mus musculus; settings: MT-treated vs untreated transgenic R6/2 mice
Procedure: as §1, §2, §3

GFAP = GFAP immunohistochemistry in brain of R6/2 mice; type: in vivo, Mus musculus; settings: MT-treated vs untreated transgenic R6/2 mice, FIG. 4
Procedure: as §1, with “Iba1+GFAP.” for “Iba1+GFAP. Series 5 was collected as spare samples and series 6 was used for piloting and negative controls.”
(§4) For fluorescence immunohistochemistry (GFAP and Iba-1) the following general protocol was applied: […]
as §2, §3

Iba-1 = Iba-1 immunohistochemistry in brain of R6/2 mice; type: in vivo, Mus musculus; settings: MT-treated vs untreated transgenic R6/2 mice, FIG. 5
Procedure: as §1, with “Iba1+GFAP.” for “Iba1+GFAP. Series 5 was collected as spare samples and series 6 was used for piloting and negative controls.”
as §4, §2, §3

[4] = Safety profile from previous clinical trials of trehalose injection; type: in vivo, human; settings: metabolized by trehalase enzymes into 2 glucose molecules
Text: Risks of study participation also includes the risk of an infusion reaction or infusion site reactions. […] If needed, the use of an implanted venous access device (i.e., Mediport) or percutaneous indwelling catheter is permitted; however, if small caliber indwelling catheters in peripheral vessels is required, they should be for single use only. Additional risks include those risks related to venipuncture (e.g., hematoma, bleeding, pain, infection), which are low, and the risk of progression of disease for participants assigned to receive.

[5] = tested on: neurofilament light chain (NfL) protein; experiment: NfL concentration in blood serum of a subject with HD on weekly IV trehalose; type: in vivo, human; settings: subject 02-001 (HD)
Procedure: This study consisted of a 2-week screening period, a 24-week open-label treatment period, and a 2-week safety follow-up period. Eligible subjects received substantially purified trehalose, administered as a once weekly IV infusion over 60 minutes±5 min for volumes≤600 mL or 90 minutes±5 min for volumes>600 mL. The total volume of the infusion was based on the weight of the subject and a dose of 0.75 g trehalose per kg of subject weight (g/kg). An additional 52 weeks of open-label trehalose treatment was planned for consenting subjects who were determined to be medically appropriate after their completion of the primary 24-week open-label treatment period.
Blood samples were obtained from subjects at the screening/baseline and during week 12 and week 24 for analyses. Blood serum was to determine the concentration of neurofilament light chain (NfL) protein in blood serum before and after initiation of trehalose treatment. Nfl concentrations in blood serum were measured using a Simoa® NF-light™ Advantage Kit by Quanterix. Higher concentrations of Nfl in subject blood serum is an indicator of clinical severity of HD, and lower concentrations compared to concentrations of the same subject indicates reversal or slowing of HD progression.

[6] = tested on: Huntington's disease (HD); experiment: Clinical scores of a subject with HD on weekly IV trehalose; type: in vivo, human
Procedure: This study consisted of a 2-week screening period, a 24-week open-label treatment period, and a 2-week safety follow-up period. Eligible subjects received substantially purified trehalose, administered as a once weekly IV infusion over 60 minutes±5 min for volumes≤600 mL or 90 minutes±5 min for volumes>600 mL. The total volume of the infusion was based on the weight of the subject and a dose of 0.75 g trehalose per kg of subject weight (g/kg). An additional 52 weeks of open-label trehalose treatment was planned for consenting subjects who were determined to be medically appropriate after their completion of the primary 24-week open-label treatment period. The primary study objectives were to determine safety and tolerability, and treatment responses associated with trehalose administered to subjects with HD. Safety and tolerability were determined by incidences of treatment-emergent adverse events (TEAEs) and serious adverse events ([…]), including clinically significant laboratory or diagnostic testing abnormalities. Laboratory samples, electrocardiograms (ECGs), and a rating on the Columbia Suicide Severity Rating Scale (C-SSRS) were obtained from the subject at the screening/baseline and during week 4, week 12, and week 24. Physical and neurological examinations of the subject were conducted at the screening/baseline and during week 12 and week 24. Vital signs and adverse events (AEs) of the subject were obtained at visits for study drug infusions and any unscheduled visits. In addition, AEs of the subject were obtained by scheduled or unscheduled telephone communications. Treatment responses were determined by assessments and comparative analyses of the following clinical scores that were obtained at the screening/baseline and follow-up study visits. All subjects completed the Patient Global Impression of Change (PGIC), the Clinical Global Impression of Change (CGIC), and the Clinical Global Impression of Severity (CGI-S) during week 4, week 8, week 12, week 18, and week 24. In addition, all participants completed the Patient's Global Impression of Severity (PGI-S), EQ Visual Analog Scale (EQ-VAS), and the CGI-S on day 1 and during week 4, week 8, week 12, week 18, and week 24. At the screening/baseline and during week 4, week 8, week 12, week 18, and week 24, subjects completed the UHDRS-TFC and the UHDRS-Independence Scale.

[7] = administered orally in humans; cleaved by gut trehalase; cited from earlier work
[8] = 3 months (12 weeks), 0.75 g/kg IV once weekly
[9] = after 3 months (12 weeks), 0.75 g/kg IV once weekly

With `OC[C@H]1O[C@H](O[C@H]2O[C@H](CO)[C@@H](O)[C@H](O)[C@H]2O)[C@H](O)[C@@H](O)[C@@H]1O` [MT, trehalose] the median lifespan [1] was 119 days, the “average final body weight” value [2] was 21.5 g and the “levels of DARPP-32 in the striatum (IHC, positive cells/mm^2)” value (DARPP-32) was “lower levels”. The “levels of EM48 in the cortex (IHC, positive cells/mm^2)” value ([3]; FIG. 2) was “lower levels”, the “levels of EM48 in the striatum (IHC, positive cells/mm^2)” value ([3]; FIG. 3) was “lower levels” and the “levels of GFAP in the striatum (IHC, % staining area)” value (GFAP) was “lower levels”. For the same compound, the “levels of Iba-1 in the striatum (IHC, % staining area)” value (Iba-1) was “lower levels”, the active metabolites [4] was “no active metabolites” and the “NfL Protein Concentration” value ([5]; Screening / Day 0 (baseline before treatment)) was 21.20 pg/mL. For the same compound, the “NfL Protein Concentration” value ([5]; Week 12 / Day 84, 0.75 g/kg IV once weekly) was 17.55 pg/mL, the “NfL Protein Concentration” value ([5]; Week 24 / Day 168, 0.75 g/kg IV once weekly) was 19.95 pg/mL and the CGI-S rating ([6]; 3 months (12 weeks)) was “A Little Better”. The CGIC rating ([6]; 3 months (12 weeks)) was “A Little Better”, the “change in the UHDRS Functional Capacity” value [6, 8] was “no change” and the “change in the UHDRS Independence Scale” value [6, 8] was “no change”. For the same compound, the “Global impression of Health on a Visual Analog Scale” value [6, 9] was 90, the “mini-mental status examination (MMSE) score” value [6, 9] was 27 and the “Global impression of Health on a Visual Analog Scale” value ([6]; baseline) was 70. The “mini-mental status examination (MMSE) score” value ([6]; baseline) was 26 and the “trehalose reaching systemic circulation” value [7] was less than 0.5%.
